Measurements as given in patent US20080118573A1, “Use of Heavy Metals in the Treatment of Biofilms” (priority 2004, published 2008).
≈ marks a conversion by molar mass, not a printed value. Like-named read-outs stand apart in the source and are kept apart here.

Key:
Format in all cases: cell-based
[1] = tested on: Pseudomonas aeruginosa ATCC 27853 planktonic and biofilm bacteria; settings: LB+B1, 24 h exposure; for MIC: P. aeruginosa ATCC 27853; for MBEC: P. aeruginosa ATCC 27853 biofilm; for MBC: P. aeruginosa ATCC 27853 planktonic
[2] = tested on: Staphylococcus aureus ATCC 29213 planktonic and biofilm bacteria; settings: LB+B1, 24 h exposure; for MIC: S. aureus ATCC 29213; for MBEC: S. aureus ATCC 29213 biofilm; for MBC: S. aureus ATCC 29213 planktonic
[3] = tested on: Escherichia coli JM109 planktonic and biofilm bacteria; settings: LB+B1, 24 h exposure; for MIC: E. coli JM109; for MBEC: E. coli JM109 biofilm; for MBC: E. coli JM109 planktonic
[4] = tested on: Escherichia coli JM109 planktonic and biofilm bacteria; assay: MBEC-HTP antibiotic susceptibility, E. coli; settings: for MBEC: E. coli JM109 biofilm
Procedure: (§1) Luria-Bertani medium was chosen for two reasons: 1) its established use in studies of metal resistance, and 2) because of the use of rich media in NCCLS testing protocols for antimicrobial resistance. Antibiotic resistance assays were performed using cation-adjusted Mueller-Hinton broth (CA-MHB, BDH Inc.) and subcultures, MBC and MBEC bacterial counts were performed using trypticase soy agar (TSA, Difco).
(§2) The present study used a novel high throughput method for screening biofilm susceptibility to metal cations and oxyanions: the MBEC device (MBEC Bioproducts Inc., Edmonton, Alberta, Canada, http://www.mbec.ca). The MBEC high throughput (MBEC-HTP) assay system consists of a shallow trough into which a plastic lid with 96 pegs fits. This peg lid also fits over a standard 96-well microtitre plate which can subsequently be used to setup serial dilutions of antimicrobial compounds. The bottom half of the MBEC device is a trough that has shallow channels that direct flow of an inoculated suspension over the pegs on the lid.
(§3) The inoculum was standardized to a 1.0 McFarland standard and verified by viable counts. The 1.0 McFarland standard inoculum was diluted 30-fold with growth media, which served as the growth suspension to inoculate the MBECJ device.
(§4) P. aeruginosa was incubated for 9 h, S. aureus for 24 h and E. coli for 24 h to generate approximately equivalent biofilms of 6.0×10^6 cfu/peg. Following the incubation period, growth of biofilm and planktonic cultures in the MBECJ device were discerned and verified by viable cell counts.
(§5) Chloramphenicol (Sigma) was prepared in 50% ethanol and treated identically to the other antibiotics. 10% ethanol was added to the growth controls for chloramphenicol assays. […] Starting with the working solutions, serial two-fold dilutions were made in the wells of a 96-well plate (the challenge plate), leaving the first well of each row as a sterility control and the second as a growth control (i.e. no antibiotic).

[5] = tested on: Staphylococcus aureus ATCC 29213 planktonic and biofilm bacteria; assay: MBEC-HTP antibiotic susceptibility, S. aureus; settings: CA-MHB, 24 h exposure; for MBEC: S. aureus ATCC 29213 biofilm; for MIC: S. aureus ATCC 29213; for MBC: S. aureus ATCC 29213 planktonic
Procedure: as §1, §2, §3, §4, §5

[6] = tested on: Pseudomonas aeruginosa ATCC 27853 planktonic and biofilm bacteria; assay: MBEC-HTP antibiotic susceptibility, P. aeruginosa; settings: for MBEC: P. aeruginosa ATCC 27853 biofilm
Procedure: as §1, §2, §3, §4, §5

[7] = tested on: Pseudomonas aeruginosa biofilms; assay: Metal and antibiotic combination assay; settings: for MBC / MIC / MBEC: median of 4 replicates
Procedure: Cells were grown to a mean density of 6.0×10^6 cfu/peg in LB+B1 media.
• 1. […] All data are median values based on 4 replicates.

[8] = Pseudomonas aeruginosa, ATCC27853, P. aeruginosa ATCC 27853, CA-MHB, 24 h exposure, read-out: MIC
[9] = Pseudomonas aeruginosa, ATCC27853, P. aeruginosa ATCC 27853 planktonic, CA-MHB, 24 h exposure, read-out: MBC
[10] = antibiotic in combination with 500 μg/ml Zn^2+
[11] = antibiotic or heavy metal alone, LB+B1
[12] = Pseudomonas aeruginosa, ATCC27853, 24 h

Compound	MIC [1]	MBEC [1]	MBC [1]	MIC [2]	MBEC [2]	MBC [2]	MIC [3]	MBEC [3]	MBC [3]	further results
[Na+].[Na+].[O]=[W](=[O])([O-])[O-] [WO4^2−, sodium tungstate]	>66 mM	>66 mM	>66 mM	>66 mM	>66 mM	>66 mM	>66 mM	>66 mM	>66 mM	
Sodium hydrogen arsenate [AsO4^2−]	>59 mM	>59 mM	>59 mM	15 ± 0 mM	>59 mM	>59 mM	7.4 ± 0 mM	>60 mM	>60 mM	
CCN1CCN(C(=O)N[C@@H](C(=O)N[C@@H]2C(=O)N3[C@@H]2SC(C)(C)[C@@H]3C(=O)O)c2ccccc2)C(=O)C1=O [Pipperacillin, Piperacillin]										MIC ([4]; E. coli JM109, CA-MHB, 24 h exposure): 4 ± 0 µg/mL (≈ 7.73 µM); MBEC ([4]; CA-MHB, 24 h exposure): 32 ± 0 µg/mL; MBC ([4]; E. coli JM109 planktonic, CA-MHB, 24 h exposure): 16 ± 0 µg/mL (≈ 30.9 µM)
[Cl][Sn][Cl] [Sn^2+, stannous chloride]	17 ± 0 mM	17 ± 0 mM	22 ± 9 mM	8.6 ± 0 mM	17.3 ± 0 mM	17.3 ± 0 mM		17 ± 0 mM	17 ± 0 mM	
O=[Se](O)O [SeO3^2−, selenous acid]	28 ± 8 mM (≈ 3610 µg/mL)	28 ± 8 mM	28 ± 8 mM (≈ 3610 µg/mL)	16 ± 0 mM (≈ 2060 µg/mL)	16 ± 0 mM	16 ± 0 mM (≈ 2060 µg/mL)	8.1 ± 0 mM (≈ 1040 µg/mL)	8.1 ± 0 mM	8.1 ± 0 mM (≈ 1040 µg/mL)	
O=C(N[C@H](CO)[C@H](O)c1ccc([N+](=O)[O-])cc1)C(Cl)Cl [Chloramphenicol]										MBEC [5]: >1024 µg/mL; MIC ([5]; Staphylococcus aureus, ATCC29213, read-out: MIC): 80 ± 32 µg/mL (≈ 248 µM); MBC ([5]; Staphylococcus aureus, ATCC29213, read-out: MBC): 1020 µg/mL (≈ 3170 µM); MBEC ([4]; CA-MHB, 24 h exposure): >256 µg/mL; MIC ([4]; Escherichia coli, E. coli JM109, CA-MHB, 24 h exposure, read-out: MIC): 3.5 ± 1 µg/mL (≈ 10.8 µM); MBC ([4]; Escherichia coli, E. coli JM109 planktonic, CA-MHB, 24 h exposure, read-out: MBC): 128 µg/mL (≈ 396 µM); MBEC ([6]; CA-MHB, 24 h exposure): >512 µg/mL; MIC [6, 8]: > 512 µg/mL; MBC [6, 9]: > 512 µg/mL
Gentamicin										MIC [5]: <2 µg/mL; MBEC [5]: 3.5 ± 1 µg/mL; MBC [5]: 4 ± 0 µg/mL; MBC [7, 10]: 128 µg/mL; MIC [7, 10]: 64 µg/mL; MBC [7, 11]: 32 µg/mL; MBEC [7, 11]: >1024 µg/mL; MIC [7, 11]: 8 µg/mL; MIC ([6]; P. aeruginosa ATCC 27853, CA-MHB, 24 h exposure): 10 ± 4 µg/mL; MBEC ([6]; CA-MHB, 24 h exposure): >1024 µg/mL; MBC ([6]; P. aeruginosa ATCC 27853 planktonic, CA-MHB, 24 h exposure): 28 ± 8 µg/mL
O=[N+]([O-])[O-].[Ag+] [Ag^+, silver nitrate]	0.30 ± 0 mM	0.40 ± 0.17 mM	0.30 ± 0 mM	0.30 ± 0 mM	>9.5 mM	9.5 ± 0 mM	0.06 ± 0.02 mM	0.07 ± 0.02 mM	0.09 ± 0.04 mM	
O=S(=O)([O-])[O-].[Mn+2] [Mn^2+, manganous sulfate]	>149 mM	>149 mM	>149 mM	12 ± 5 mM	>149 mM	>149 mM	37 ± 0 mM	199 ± 86 mM	199 ± 86 mM	
CC1(C)S[C@@H]2[C@H](NC(=O)[C@H](N)c3ccccc3)C(=O)N2[C@H]1C(=O)O [Ampicillin]										MBEC ([4]; CA-MHB, 24 h exposure): 1024 ± 0 µg/mL; MBC ([4]; Escherichia coli, 24 h): 64 µg/mL (≈ 183 µM); MIC ([4]; Escherichia coli, 24 h): 4 µg/mL (≈ 11.4 µM); MBEC ([6]; CA-MHB, 24 h exposure): >512 µg/mL; MBC [6, 12]: > 512 µg/mL; MIC [6, 12]: > 512 µg/mL
[Na+].[Na+].[O]=[Mo](=[O])([O-])[O-] [MoO4^2−, sodium molybdate]	>102 mM	>102 mM	>102 mM	>102 mM	>102 mM	>102 mM	>102 mM	>102 mM	>102 mM	
Sodium arsenite [AsO2^−]	>77 mM	>77 mM	>77 mM	9.6 ± 0 mM	>77 mM	>77 mM	2.4 ± 0 mM	77 ± 0 mM	77 ± 0 mM	
O=[Te](=O)([O-])[O-].[K+].[K+] [TeO4^2−, potassium tellurate]	>1.3 mM	>1.3 mM	>1.3 mM	0.67 ± 0 mM	1.3 ± 0.7 mM	>1.3 mM	0.06 ± 0.02 mM	0.42 ± 0.17 mM	0.42 ± 0.17 mM	
[Cl][Hg][Cl] [Hg^2+, mercuric chloride]	0.38 ± 0.14 mM	0.43 ± 0.16 mM	0.53 ± 0.39 mM	0.020 mM	0.080 ± 0 mM	0.080 ± 0 mM	0.07 ± 0.05 mM	0.07 ± 0.05 mM	0.07 ± 0.05 mM	
[Cl][Cd][Cl] [Cd^2+, Cadmium chloride]	4.6 ± 0 mM	36 ± 0 mM	36 ± 0 mM	0.25 ± 0.07 mM	15.9 ± 4.6 mM	18.2 ± 0 mM	1.1 ± 0 mM	2.3 ± 0 mM	2.3 ± 0 mM	
O=[Te]([O-])[O-].[K+].[K+] [TeO3^2−, potassium tellurite]	0.73 ± 0 mM	4.4 ± 1.7 mM	5.1 ± 0 mM	0.18 ± 0 mM	0.73 ± 0 mM	>0.73 mM	0.006 mM	0.014 mM	0.016 mM	
NCC[C@H](O)C(=O)N[C@@H]1C[C@H](N)[C@@H](O[C@H]2O[C@H](CN)[C@@H](O)[C@H](O)[C@H]2O)[C@H](O)[C@H]1O[C@H]1O[C@H](CO)[C@@H](O)[C@H](N)[C@H]1O [Amikacin]										MIC in the presence of Cu^2+, times less than the MIC for the antibiotic alone ([7]; 200 μg/ml Cu^2+): 256 times; MBC ([7]; Pseudomonas aeruginosa, antibiotic in combination with 200 μg/ml Cu^2+, read-out: MBC): > 64 µg/mL; MIC ([7]; Pseudomonas aeruginosa, antibiotic in combination with 200 μg/ml Cu^2+, read-out: MIC): 0.125 µg/mL; MBC ([7]; Pseudomonas aeruginosa, antibiotic or heavy metal alone, LB+B1, read-out: MBC): 256 µg/mL; MIC ([7]; Pseudomonas aeruginosa, antibiotic or heavy metal alone, LB+B1, read-out: MIC): 32 µg/mL; MBEC ([7]; antibiotic in combination with 200 μg/ml Cu^2+): >64 µg/mL; MBEC [7, 11]: >512 µg/mL; MBEC ([6]; CA-MHB, 24 h exposure): >512 µg/mL; MIC [6, 8]: 32 µg/mL (≈ 54.6 µM); MBC [6, 9]: 224 ± 64 µg/mL (≈ 383 µM)
